# Biological target: Cholinesterases; ACHE & BCHE (Homo sapiens) (UniProt P06276+P22303)
# Experiment: Selectivity ratio of IC50 for human BChE over IC50 for human AChE by Ellman method
# Cholinesterases; ACHE & BCHE (Homo sapiens), sequence (P06276 whole entry, looked up): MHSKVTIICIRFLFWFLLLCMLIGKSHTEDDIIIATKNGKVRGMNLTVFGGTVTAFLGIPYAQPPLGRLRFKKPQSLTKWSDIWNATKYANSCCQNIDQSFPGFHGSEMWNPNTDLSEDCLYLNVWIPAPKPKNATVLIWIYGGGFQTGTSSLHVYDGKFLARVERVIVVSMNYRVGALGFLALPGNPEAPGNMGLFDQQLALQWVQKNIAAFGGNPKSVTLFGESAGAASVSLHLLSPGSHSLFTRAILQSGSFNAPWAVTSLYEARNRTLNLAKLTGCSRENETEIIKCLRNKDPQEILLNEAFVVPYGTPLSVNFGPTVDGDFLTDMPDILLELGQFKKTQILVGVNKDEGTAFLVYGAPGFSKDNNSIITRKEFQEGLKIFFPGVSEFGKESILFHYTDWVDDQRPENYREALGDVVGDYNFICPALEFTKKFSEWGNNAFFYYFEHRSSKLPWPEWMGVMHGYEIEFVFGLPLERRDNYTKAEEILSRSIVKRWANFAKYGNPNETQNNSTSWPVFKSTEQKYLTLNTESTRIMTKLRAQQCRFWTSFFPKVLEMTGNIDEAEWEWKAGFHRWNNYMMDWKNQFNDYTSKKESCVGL
# Cholinesterases; ACHE & BCHE (Homo sapiens), sequence (P22303 whole entry, looked up): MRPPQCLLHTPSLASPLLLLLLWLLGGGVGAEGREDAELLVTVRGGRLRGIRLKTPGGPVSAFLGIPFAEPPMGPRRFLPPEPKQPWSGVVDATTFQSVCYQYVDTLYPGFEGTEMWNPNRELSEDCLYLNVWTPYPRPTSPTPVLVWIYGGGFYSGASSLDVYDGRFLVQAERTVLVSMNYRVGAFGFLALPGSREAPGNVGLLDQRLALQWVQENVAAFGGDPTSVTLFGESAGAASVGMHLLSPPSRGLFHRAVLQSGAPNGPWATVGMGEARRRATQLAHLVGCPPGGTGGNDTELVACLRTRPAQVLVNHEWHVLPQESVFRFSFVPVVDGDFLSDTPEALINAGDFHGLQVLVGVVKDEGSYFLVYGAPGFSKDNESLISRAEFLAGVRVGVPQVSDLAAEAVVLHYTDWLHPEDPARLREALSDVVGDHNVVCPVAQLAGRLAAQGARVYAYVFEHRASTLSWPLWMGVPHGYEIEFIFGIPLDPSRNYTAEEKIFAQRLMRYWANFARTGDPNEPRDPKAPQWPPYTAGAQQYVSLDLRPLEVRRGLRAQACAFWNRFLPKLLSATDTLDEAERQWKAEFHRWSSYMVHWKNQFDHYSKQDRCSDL
compound,measurement,value
O=P(O)(NN1CCCCC1)Oc1ccccc1,Ratio IC50,4

# Source: ChEMBL document CHEMBL1275282, “Synthesis, characterization, oxidative degradation, antibacterial activity and acetylcholinesterase/butyrylcholinesterase inhibitory effects of some new phosphorus(V) hydrazides” (Eur J Med Chem, 2010)
